How the values were obtained:
[1] = tested on: astrocytes; experiment: [3H]L-serine transport into astrocytes; format: cell-based, rat; details: FIG. 6B
Description: (§1) Cell-based assays: the transport of [^3H]L- or D-serine was measured in primary cultures of rat hippocampal astrocytes or in human embryonic kidney (HEK) cells expressing ASCT transporter sub-types. For the astrocyte assays, cells were plated on either 24- or 96-well plates at a density of 50,000 cells per well. For the HEK assays, cells were plated on coated 96-well plates at a density of 80,000 cells/well. Assays were conducted in duplicate at room temperature in assay buffer consisting of: NaCl: 150 mM, KCl: 2 mM; MgCl2: 1 mM; CaCl2: 1 mM; HEPES: Tris buffer: 10 mM, pH7.4. To assess the sodium-dependence of transport, NaCl was replaced in the assay buffer by equimolar choline chloride. Following aspiration of growth medium and 2 washes with assay buffer, cells were incubated with [^3H]L- or D-serine at a final concentration of 1 μM for 5 min (astrocytes) or 1 min (HEK cells), after which the incubation medium was aspirated and the cells washed twice with ice-cold assay buffer. Cells containing radiolabel were solubilized in 100 μl of 1% Triton-X100 and an aliquot counted in a beta counter. IC50 values were determined over a range of at least 6 concentrations and derived from curve-fitting algorithms available in Graph Pad Prism 4.

[2] = target: T1, human ASCT2 (Homo sapiens, UniProt Q15758); experiment: transport into HEK cells expressing ASCT2; format: cell-based; details: ASCT2-expressing HEK cells, FIG. 6B
T1 construct: expressed in transfected cells; host or cells: HEK (human embryonic kidney) cells
T1 sequence (Q15758 1-541): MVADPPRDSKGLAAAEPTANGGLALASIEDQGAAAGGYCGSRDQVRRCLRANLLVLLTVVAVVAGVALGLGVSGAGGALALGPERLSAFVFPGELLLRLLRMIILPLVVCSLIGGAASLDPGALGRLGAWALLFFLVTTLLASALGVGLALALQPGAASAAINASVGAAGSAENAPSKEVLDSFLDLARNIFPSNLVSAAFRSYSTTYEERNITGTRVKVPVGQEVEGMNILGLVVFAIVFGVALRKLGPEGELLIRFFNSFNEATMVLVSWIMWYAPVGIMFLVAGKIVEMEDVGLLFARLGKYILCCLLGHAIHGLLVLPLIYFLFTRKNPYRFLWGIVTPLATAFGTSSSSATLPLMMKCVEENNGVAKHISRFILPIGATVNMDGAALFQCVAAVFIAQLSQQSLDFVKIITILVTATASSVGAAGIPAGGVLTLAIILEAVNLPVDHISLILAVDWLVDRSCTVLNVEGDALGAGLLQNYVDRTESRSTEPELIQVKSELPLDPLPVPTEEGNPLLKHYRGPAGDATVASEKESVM
Description: as §1

[3] = target: T2, ASCT1 (Homo sapiens, UniProt P43007); experiment: transport into HEK cells expressing ASCT1; format: cell-based; set-up: expressed in transfected cells; host or cells: HEK (human embryonic kidney) cells
T2 sequence (P43007 1-532): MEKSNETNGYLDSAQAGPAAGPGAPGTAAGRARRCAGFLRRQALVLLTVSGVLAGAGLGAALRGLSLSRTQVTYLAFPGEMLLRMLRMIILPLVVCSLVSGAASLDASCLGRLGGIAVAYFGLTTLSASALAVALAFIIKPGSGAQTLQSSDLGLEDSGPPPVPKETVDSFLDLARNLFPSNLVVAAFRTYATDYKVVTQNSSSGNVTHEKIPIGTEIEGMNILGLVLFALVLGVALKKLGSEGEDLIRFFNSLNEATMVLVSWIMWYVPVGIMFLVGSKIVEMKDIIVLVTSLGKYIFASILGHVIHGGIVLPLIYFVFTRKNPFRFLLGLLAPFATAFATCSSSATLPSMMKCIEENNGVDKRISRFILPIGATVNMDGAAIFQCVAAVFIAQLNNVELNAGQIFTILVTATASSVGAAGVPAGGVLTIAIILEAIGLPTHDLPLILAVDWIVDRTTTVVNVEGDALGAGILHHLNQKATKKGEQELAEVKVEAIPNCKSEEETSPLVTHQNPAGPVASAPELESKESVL
Description: as §1

SMILES: N[C@H](CO)C(=O)O [D-serine]
- inhibition of [3H]L-serine transport [1]: completely inhibited
- inhibition of [3H]L-serine transport [2]: completely inhibited
- inhibition of [3H]L-serine transport ([3]; ASCT1-expressing HEK cells, FIG. 6B): completely inhibited
- transport of [3H]D-serine into ASCT1-expressing HEK cells ([3]; with and without extracellular sodium, FIG. 6A): transported into ASCT1-expressing HEK cells in a sodium-dependent manner

From US9415031B2, “D-serine transporter inhibitors as pharmaceutical compositions for the treatment of visual system disorders” (Allergan, Inc., priority 2011, dated 2016)
